Measurements: article PMC5939068 (Proceedings of the National Academy of Sciences of the …, 2018)

Molecular target: 52SFK (HAdV-52 short fiber knob) (human adenovirus 52, UniProt A0MK70)
Test: SPR with immobilized knob
Assay type: binding
Details: oligoSia in solution

`CC(=O)N[C@H]1[C@H]([C@H](O)[C@H](O)CO)O[C@@](O[C@H](CO)[C@@H](O)[C@@H]2OC(O)(C(=O)O)C[C@H](O)[C@H]2NC(C)=O)(C(=O)O)C[C@@H]1O` (stereo partly shown) [DP2, disialic acid] was tested, and the “SPR with immobilized knob” value was “the biggest increase in affinity was shown between DP2 and DP3”.
